SMILES strings stand for the structures. Numbering of substitutions follows the chain as printed.

The target of the first assay is T1, CepR (Burkholderia cenocepacia, UniProt B4EMD0).
T1 sequence (B4EMD0 1-239): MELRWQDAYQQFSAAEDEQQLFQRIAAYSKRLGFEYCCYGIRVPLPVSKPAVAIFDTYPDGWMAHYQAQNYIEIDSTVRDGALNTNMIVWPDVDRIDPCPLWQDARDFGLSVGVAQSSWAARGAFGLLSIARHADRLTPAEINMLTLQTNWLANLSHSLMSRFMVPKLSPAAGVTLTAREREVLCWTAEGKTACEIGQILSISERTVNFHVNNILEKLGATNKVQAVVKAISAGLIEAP
The assay can be described thus: CepR antagonism in E. coli β-galactosidase reporter (Ec-reporter), competition against C8-AHL. The class given is cell-based, B. cenocepacia. To be noted: Ec-reporter; against 10 nM C8-AHL. The procedure, abridged:
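CepR antagonism was measured in E. coli JLD271 (∆sdiA) carrying pJN105-cepR, which expresses B. cenocepacia CepR from an arabinose-inducible pBAD promoter, and pSC11-cepI, which fuses lacZ to the cepI promoter. Induced cells were grown 4 h with compound and 10 nM C8-AHL. β-Galactosidase activity was then read by CPRG cleavage at 37 °C after Z Buffer permeabilization.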
Turning to `CCCCCC(=O)CC(=O)N[C@H]1CCOC1=O` [3’O-C8-AHL, reference compound], the IC50 came to 16000 nM and the “Maximal Inhibition (%)” value is 71%.
`CCCCCCS(=O)(=O)N[C@H]1CCOC1=O` [Compound A11]: the “Maximal Inhibition (%)” value is given as 78%.
Take `CCCC(=O)N[C@H]1CCOC1=O` [Compound C4-AHL, butanoyl L-homoserine lactone, reference compound]: the IC50 was found to be 20000 nM and the “Maximal Inhibition (%)” value came to 58%.

The assay is the same for the next values; noted with them: Table S3, Ec-reporter; screening conc. 25 μM.
In the case of `CCCCOc1ccc(C(=O)N[C@H]2CCOC2=O)cc1` [Compound R4], the “Inh% (100-Act%)” value is -30%.

The assay is the same for the next values; noted with them: Table S3, Ec-reporter; screening conc. 100 μM; against 10 nM C8-AHL.
`CCCCCC(=O)CC(=O)N[C@H]1CCOC1=O` [3’O-C8-AHL, reference compound]: the “Inh% (100-Act%)” value is listed as 3.0%.
With `CCCCCCCCCC(=O)CC(=O)N[C@H]1CCOC1=O` [3’O-C12-AHL, reference compound], the “Inh% (100-Act%)” value is listed as -40%.
For the compound `O=C(CCCOc1ccc(Cl)cc1)NC1CCOC1=O` (centres unmarked) [CL, reference compound], the “Inh% (100-Act%)” value was -20%.
The same measure, in the same setting: as for `O=C(CCc1ccc(Br)cc1)N[C@H]1CCOC1=O` [Compound B7], the figure is -50%.
The same measure, in the same setting: to `O=C(CCC1CCCCC1)N[C@H]1CCOC1=O` [Compound B11] belongs -20%; to `Cc1ccc(CCC(=O)N[C@H]2CCOC2=O)cc1` [Compound E26], -10%; to `COc1ccc(CCC(=O)N[C@H]2CCOC2=O)cc1` [Compound E28], -30%.

For the next assay, the target named is T2, CepR (Burkholderia multivorans, UniProt Q93PF7).
T2 sequence (Q93PF7 1-239): T1 sequence (B4EMD0 1-239) with W5R, A51S, Q69H, N84S, R95Q, D97A
The assay can be described thus: CepR antagonism in B. multivorans cepI::lacZ reporter (Bm-reporter), competition against C8-AHL. Format: cell-based. As to conditions: Bm-reporter; against 5 nM C8-AHL. The text has this:
(§1) We next sought to assess if the CepR modulators identified in the Ec-reporter maintained their activities in a member of the Bcc. For these studies, we generated a B. multivorans cepI::lacZ reporter organism (Bm-reporter) using standard allelic exchange methods (see Methods). Along with B. cenocepacia, B. multivorans is one of the most commonly isolated Bcc members[6],[44]. We note that small molecules must contend with a different cellular environment in the native organism relative to E. coli[48]; however, as both CepR and the cepI promoter are highly conserved among Bcc species (Fig. S3), we reasoned that the majority of compounds identified in the Ec-reporter (containing B. cenocepacia versions of the cepI promoter and the cepR gene) would maintain their relative activity profiles in CepR in B. multivorans. […] Similar to the Ec-reporter, CepR binding to the cepI promoter then induces β-galactosidase production, allowing for the quantitation of CepR activity. Using the Bm-reporter organism, we observed robust activity for CepR in response to C8-AHL (EC50 = 0.7 nM, Table 3).
(§2) The B. multivorans cepI::lacZ strain was used to obtain dose-response data for CepR in response to synthetic AHLs. Overnight cultures of B. multivorans cepI::lacZ were grown in LB medium at 37 °C with shaking (225 rpm). Aliquots (200 μL) of a 1:10 dilution of this overnight culture were plated into 96-well plates containing varying concentrations of compound, and then grown for 4 h at 37 °C with shaking (225 rpm). β-galactosidase production was measured as described above for E. coli, with the following changes: permeabilized cells were incubated at 25 °C with substrate CPRG for ~10 min until positive control wells developed a deep red color. For agonism assays, synthetic compound was screened alongside and compared to the native ligand, C8-AHL (100 μM). For antagonism assays, the concentration of native ligand utilized was 5 nM (approximately equal to twice its EC50 value).
Regarding `CCCC(=O)N[C@H]1CCOC1=O` [Compound C4-AHL, butanoyl L-homoserine lactone, reference compound], the “Maximal Inhibition (%)” value is 76%.

The assay is the same for the next values; noted with them: Bm-reporter; against 5 nM C8-AHL; read-out: IC50.
For the compound `CCCC(=O)N[C@H]1CCOC1=O` [Compound C4-AHL, butanoyl L-homoserine lactone, reference compound], the IC50 came out at 250 nM.

The assay is the same for the next values; noted with them: Table S5, Bm-reporter; screening conc. 100 μM.
For the compound `CCCCCCS(=O)(=O)N[C@H]1CCOC1=O` [Compound A11], the “Inh% (100-Act%)” value stood at 84%.

For another assay, the target named is T2, CepR. In words: CepR agonism in B. multivorans cepI::lacZ reporter (Bm-reporter). The class given is cell-based. As to conditions: Bm-reporter, agonism dose-response; read-out: EC50.
Excerpt: as §1, §2
As for `CCCCCC(=O)CC(=O)N[C@H]1CCOC1=O` [3’O-C8-AHL, reference compound], the EC50 was at least 3500 nM.
Same read-out and setting: as for `O=C(CCCOc1ccc(Cl)cc1)NC1CCOC1=O` (centres unmarked) [CL, reference compound], the figure is 940 nM.
Same read-out and setting: as for `O=C(CCc1ccc(Br)cc1)N[C@H]1CCOC1=O` [Compound B7], the figure is 0.24 nM.

The assay is the same for the next values; noted with them: Bm-reporter; activity for 100 μM C8-AHL set to 100%; error ±10%.
In the case of `CCCCCC(=O)CC(=O)N[C@H]1CCOC1=O` [3’O-C8-AHL, reference compound], the “Maximal Activation (%)” value is reported as 72%.
Same read-out and setting: to `O=C(CCCOc1ccc(Cl)cc1)NC1CCOC1=O` (centres unmarked) [CL, reference compound] belongs 80%; to `O=C(CCc1ccc(Br)cc1)N[C@H]1CCOC1=O` [Compound B7], 82%; to `Cc1ccc(CCC(=O)N[C@H]2CCOC2=O)cc1` [Compound E26], 96%.

Staying with this assay, now noted: Table S4, Bm-reporter; read-out: EC50.
Take `Cc1ccc(CCC(=O)N[C@H]2CCOC2=O)cc1` [Compound E26]: the EC50 worked out at 0.77 nM.
`COc1ccc(CCC(=O)N[C@H]2CCOC2=O)cc1` [Compound E28]: the EC50 amounted to 52 nM.

Still in this assay, the particulars now being: Table S4, Bm-reporter; screening conc. 25 μM.
Turning to `CCCCOc1ccc(C(=O)N[C@H]2CCOC2=O)cc1` [Compound R4], the Act% stood at 58%.

Still in this assay, the particulars now being: Table S4, Bm-reporter; screening conc. 100 μM.
In the case of `CCCCCC(=O)CC(=O)N[C@H]1CCOC1=O` [3’O-C8-AHL, reference compound], the Act% worked out at 72%.
Still for that read-out and setting: to `CCCCCCCCCC(=O)CC(=O)N[C@H]1CCOC1=O` [3’O-C12-AHL, reference compound] belongs 80%; to `O=C(CCCOc1ccc(Cl)cc1)NC1CCOC1=O` (centres unmarked) [CL, reference compound], 80%.
As to `O=C(CCc1ccc(Br)cc1)N[C@H]1CCOC1=O` [Compound B7], the Act% is given as 82%.
The same measure, in the same setting: to `O=C(CCC1CCCCC1)N[C@H]1CCOC1=O` [Compound B11] belongs 51%; to `Cc1ccc(CCC(=O)N[C@H]2CCOC2=O)cc1` [Compound E26], 96%; to `COc1ccc(CCC(=O)N[C@H]2CCOC2=O)cc1` [Compound E28], 90%.

Another assay addresses T1, CepR. In words: CepR agonism in E. coli β-galactosidase reporter (Ec-reporter) JLD271 [pJN105-cepR + pSC11-cepI]. As to conditions: Ec-reporter. The class given is cell-based, B. cenocepacia. A digest of the protocol:
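E. coli JLD271 (ΔsdiA) carrying arabinose-inducible CepR (27 mM L-arabinose) and cepI-lacZ fusion, grown 4 h with compound; β-galactosidase measured by CPRG cleavage at 37 °C (~30 min), normalized to OD600. Agonism compared with C8-AHL at 100 μM; screen at 100 μM or solubility limit, then dose-response; ≥3 trials.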
As to `CCCCCCS(=O)(=O)N[C@H]1CCOC1=O` [Compound A11], the “CepR agonism in words” value is listed as “failed to activate CepR”.

The same assay, now with this note: Ec-reporter, agonism dose-response.
In the case of `CCCCCC(=O)CC(=O)N[C@H]1CCOC1=O` [3’O-C8-AHL, reference compound], the EC50 stood at 1200 nM.
Regarding `O=C(CCc1ccc(Br)cc1)N[C@H]1CCOC1=O` [Compound B7], the EC50 was determined as 0.29 nM and the “EC50 (nM)” value is “sub-nanomolar”.
With `O=C(CCC1CCCCC1)N[C@H]1CCOC1=O` [Compound B11], the EC50 was determined as 130 nM.
Still for that read-out and setting: to `Cc1ccc(CCC(=O)N[C@H]2CCOC2=O)cc1` [Compound E26] belongs 5.9 nM; to `COc1ccc(CCC(=O)N[C@H]2CCOC2=O)cc1` [Compound E28], 3.8 nM.

The same assay, now with this note: Ec-reporter; activity for 100 μM C8-AHL set to 100%; error ±10%.
In the case of `CCCCCC(=O)CC(=O)N[C@H]1CCOC1=O` [3’O-C8-AHL, reference compound], the “Maximal Activation (%)” value came out at 86%.
On the same count and under the same terms, to `CCCCCCS(=O)(=O)N[C@H]1CCOC1=O` [Compound A11] belongs −5.0%; to `O=C(CCc1ccc(Br)cc1)N[C@H]1CCOC1=O` [Compound B7], 97%.
With `O=C(CCC1CCCCC1)N[C@H]1CCOC1=O` [Compound B11], the “Maximal Activation (%)” value was found to be 87%.
As for `CCCC(=O)N[C@H]1CCOC1=O` [Compound C4-AHL, butanoyl L-homoserine lactone, reference compound], the “Maximal Activation (%)” value is reported as 23%.
Take `Cc1ccc(CCC(=O)N[C@H]2CCOC2=O)cc1` [Compound E26]: the “Maximal Activation (%)” value was determined as 96%.
`COc1ccc(CCC(=O)N[C@H]2CCOC2=O)cc1` [Compound E28]: the “Maximal Activation (%)” value was found to be 92%.

The assay is the same for the next values; noted with them: Table S2, Ec-reporter.
Take `O=C(CCCOc1ccc(Cl)cc1)NC1CCOC1=O` (centres unmarked) [CL, reference compound]: the EC50 was 12 nM.
With `CCCCOc1ccc(C(=O)N[C@H]2CCOC2=O)cc1` [Compound R4], the EC50 turned out to be 86 nM.

Still in this assay, the particulars now being: Table S2, Ec-reporter; screening conc. 25 μM.
`CCCCOc1ccc(C(=O)N[C@H]2CCOC2=O)cc1` [Compound R4]: the Act% is on record as 84%.

The assay is the same for the next values; noted with them: Table S2, Ec-reporter; screening conc. 100 μM.
`CCCCCC(=O)CC(=O)N[C@H]1CCOC1=O` [3’O-C8-AHL, reference compound]: the Act% is given as 86%.
Regarding `CCCCCCCCCC(=O)CC(=O)N[C@H]1CCOC1=O` [3’O-C12-AHL, reference compound], the Act% amounted to 98%.
Turning to `O=C(CCCOc1ccc(Cl)cc1)NC1CCOC1=O` (centres unmarked) [CL, reference compound], the Act% worked out at 110%.
Still for that read-out and setting: as for `CCCCCCS(=O)(=O)N[C@H]1CCOC1=O` [Compound A11], the figure is -5.0%; as for `O=C(CCc1ccc(Br)cc1)N[C@H]1CCOC1=O` [Compound B7], 97%; as for `O=C(CCC1CCCCC1)N[C@H]1CCOC1=O` [Compound B11], 87%.
For the compound `CCCC(=O)N[C@H]1CCOC1=O` [Compound C4-AHL, butanoyl L-homoserine lactone, reference compound], the Act% was 23%.
The same measure, in the same setting: as for `Cc1ccc(CCC(=O)N[C@H]2CCOC2=O)cc1` [Compound E26], the figure is 96%; as for `COc1ccc(CCC(=O)N[C@H]2CCOC2=O)cc1` [Compound E28], 92%.

A word on the IC50: it is the concentration that inhibits the measured activity by half. As a reminder, the EC50 is the concentration that produces a half-maximal response.

The values above are taken from paper PMC6748986, “Potent modulation of the CepR quorum sensing receptor and virulence in a Burkholderia cepacia complex member using non-native lactone ligands” (Scientific Reports, 2019).
